This note sets out measurements from US20250388593A1 (MITSUBISHI TANABE PHARMA CORPORATION, priority 2023, published 2025).

Molecules are shown by their SMILES. pKd: −log10 of the molar value.

CRBN truncate (318-426), sequence (Q96SW2 318-426): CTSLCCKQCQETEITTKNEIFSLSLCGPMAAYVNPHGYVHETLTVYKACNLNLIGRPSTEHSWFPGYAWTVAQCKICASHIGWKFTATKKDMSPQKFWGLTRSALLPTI

The target in this test is CRBN truncate (318-426) (Homo sapiens (Human), UniProt Q96SW2). Put plainly: Measurement of molecular interactions using surface plasmon resonance (SPR), Biacore T200. The settings on record: 25° C., immobilized CRBN truncate, upper limit of measurement 200 μM. The format is binding. A digest of the protocol:
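Compound injections used 60 s association and 120 s dissociation in HEPES pH 7.5 buffer (150 mM NaCl, 1 mM TCEP, 0.005% Tween 20, 2% DMSO). The ligand was CRBN truncate 318-426 bearing a C-terminal Avi-tag, immobilised via streptavidin on an SA sensor chip.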
(In general: SPR reads the build-up and loss of mass on a sensor chip optically.)
`CC(=O)Nc1ccc(N2CCC3(CCCC(=O)NC3=O)C2)c(F)c1` (centres unmarked) [Example 88, N-[4-(6,8-dioxo-2,7-diazaspiro[4.6]undecan-2-yl)-3-fluorophenyl]acetamide]: the pKd is at most 4.00.
The compound `CC(=O)N1CCN(Cc2ccc(N3CCC4(CCCC(=O)NC4=O)C3)nc2)CC1` (centres unmarked) [Example 89, 2-[5-[(4-Acetylpiperazin-1-yl)methyl]pyridin-2-yl]-2,7-diazaspiro[4.6]undecane-6,8-dione] had a pKd of at most 4.00.
With `CC(C)(C)OC(=O)c1ccc(N2CCC3(CCCC(=O)NC3=O)C2)nc1` (centres unmarked) [Example 90-1, tert-Butyl 6-(6,8-dioxo-2,7-diazaspiro [4.6]undecan-2-yl) pyridine-3-carboxylate], the pKd was above 4.30.
The value for `CC(C)(C)OC(=O)c1ccc(N2CCC3(CCCC(=O)NC3=O)C2=O)nc1` (centres unmarked) [Example 90-2, tert-Butyl 6-(1,9,11-trioxo-2,10-diazaspiro [4.6]undecan-2-yl) pyridine-3-carboxylate] was at most 4.00; that for `CC(C)(C)OC(=O)c1ccnc(N2CCC3(CCCC(=O)NC3=O)C2)c1` (centres unmarked) [Example 91, tert-Butyl 2-(6,8-dioxo-2,7-diazaspiro [4.6]undecan-2-yl) pyridine-4-carboxylate] was 4.00 to 4.30.
`CC(C)(C)OC(=O)c1cccc(N2CCC3(CCCC(=O)NC3=O)C2)n1` (centres unmarked) [Example 92, tert-Butyl 6-(6,8-dioxo-2,7-diazaspiro [4.6]undecan-2-yl) pyridine-2-carboxylate] showed a negative-log Kd (pKd) of at most 4.00.
With `CC(C)(C)OC(=O)c1ccc(N2CCCC3(CCCC(=O)NC3=O)C2)nc1` (centres unmarked) [Example 93, tert-Butyl 6-(7,9-dioxo-2,8-diazaspiro [5.6]dodecan-2-yl) pyridine-3-carboxylate] the figure was at most 4.00; with `CC(C)(C)OC(=O)c1ccc(N2CCC3(CCCC(=O)NC3=O)CC2)nc1` [Example 94, tert-Butyl 6-(7,9-dioxo-3,8-diazaspiro [5.6]dodecan-3-yl) pyridine-3-carboxylate], 4.00 to 4.30.
In turn, `CC(C)(C)OC(=O)c1cnc(N2CCC3(CCCC(=O)NC3=O)C2)s1` (centres unmarked) [Example 95, tert-Butyl 2-(6,8-dioxo-2,7-diazaspiro [4.6]undecan-2-yl)-1,3-thiazole-5-carboxylate] had a pKd of at most 4.00.
The value for `CNC(=O)c1ccc(N2CCC3(CCCC(=O)NC3=O)C2)nc1` (centres unmarked) [Example 96, 6-(6,8-Dioxo-2,7-diazaspiro [4.6]undecan-2-yl)-N-methylpyridine-3-carboxamide] was at most 4.00; that for `CC(C)(C)OC(=O)N1CCN(C(=O)c2ccc(N3CCC4(CCCC(=O)NC4=O)C3)nc2)CC1` (centres unmarked) [Example 97, tert-Butyl 4-[6-(6,8-dioxo-2,7-diazaspiro [4.6]undecan-2-yl)pyridine-3-carbonyl]piperazine-1-carboxylate] was at most 4.00.
With `CC(C)(C)OC(=O)N1CCN(Cc2ccc(N3CCC4(CCCC(=O)NC4=O)C3)nc2)CC1` (centres unmarked) [Example 99, tert-Butyl 4-[[6-(6,8-dioxo-2,7-diazaspiro [4.6]undecan-2-yl)pyridin-3-yl]methyl]piperazine-1-carboxylate] the figure was at most 4.00; with `O=C1CCCC2(CCCN(C(=O)c3ccccc3)C2)C(=O)N1` (centres unmarked) [Example 104, 2-Benzoyl-2,8-diazaspiro [5.6]dodecane-7,9-dione], at most 4.00.
With `O=C1CCCC2(CCN(C(=O)c3ccccc3)CC2)C(=O)N1` [Example 106, 3-Benzoyl-3,8-diazaspiro [5.6]dodecane-7,9-dione] the figure was at most 4.00; with `CC(C)(C)OC(=O)c1ccc(N2CCC3(CCCC(=O)NC3=O)CC2=O)nc1` (centres unmarked) [Example 108, tert-Butyl 6-(4,7,9-trioxo-3,8-diazaspiro [5.6]dodecan-3-yl) pyridine-3-carboxylate], 4.00 to 4.30.
`CC(C)(C)OC(=O)c1ccc(N2CCC3(CCCC(=O)NC3=O)CC2=O)cc1` (centres unmarked) [Example 109, tert-Butyl 4-(4,7,9-trioxo-3,8-diazaspiro [5.6]dodecan-3-yl) benzoate] showed a pKd above 4.30.
With `CC(C)(C)OC(=O)c1cccc(N2CCC3(CCCC(=O)NC3=O)CC2=O)c1` (centres unmarked) [Example 110, tert-Butyl 3-(4,7,9-trioxo-3,8-diazaspiro [5.6]dodecan-3-yl) benzoate] the figure was at most 4.00.
With `CC(C)(C)OC(=O)c1ccc(CN2CCC3(CCCC(=O)NC3=O)CC2=O)cc1` (centres unmarked) [Example 111, tert-Butyl 4-[(4,7,9-trioxo-3,8-diazaspiro [5.6]dodecan-3-yl)methyl]benzoate] the figure was 4.00 to 4.30; with `CC(C)(C)OC(=O)c1ccc(N2CC3(CCCC(=O)NC3=O)CC2=O)nc1` (centres unmarked) [Example 113, tert-Butyl 6-(3,6,8-trioxo-2,7-diazaspiro [4.6]undecan-2-yl) pyridine-3-carboxylate], at most 4.00; with `CC(C)(C)OC(=O)c1cnc(N2CCCC(=O)NC2=O)s1` [Example 115, tert-Butyl 2-(2,4-dioxo-1,3-diazepan-1-yl) thiazole-5-carboxylate], 4.00 to 4.30.
The value for `O=C1CCCN(c2nc3ccc([N+](=O)[O-])cc3s2)C(=O)N1` [Example 116, 1-(6-Nitro-1,3-benzothiazol-2-yl)-1,3-diazepane-2,4-dione] was above 4.30; that for `O=C1CCCN(c2ccc3ncccc3c2)C(=O)N1` [Example 117, 1-Quinolin-6-yl-1,3-diazepane-2,4-dione] was at most 4.00.
Turning to `Nc1ccc2nc(N3CCCC(=O)NC3=O)sc2c1` [Example 118, 1-(6-Amino-1,3-benzothiazol-2-yl)-1,3-diazepane-2,4-dione], the pKd is at most 4.00.
With `CN(c1ccc([N+](=O)[O-])cc1)C1CCCC(=O)NC1=O` (centres unmarked) [Example 120, 3-(N-Methyl-4-nitro-anilino) azepane-2,7-dione] the figure was at most 4.00; with `CC(=O)Nc1ccc(N(C)C2CCCC(=O)NC2=O)cc1` (centres unmarked) [Example 121, N-[4-[(2,7-Dioxoazepan-3-yl)-methyl-amino]phenyl]acetamide], at most 4.00.
The value for `O=C1CCCC2(CCN(C(=O)c3ccccc3)C2)C(=O)N1` (centres unmarked) [Example 122, 2-Benzoyl-2,7-diazaspiro [4.6]undecane-6,8-dione] was at most 4.00; that for `CC(C)(C)OC(=O)c1cccc(N2CCC3(CCCC(=O)NC3=O)C2)c1` (centres unmarked) [Example 123, tert-Butyl 3-(6,8-dioxo-2,7-diazaspiro [4.6]undecan-2-yl) benzoate] was above 4.30.
The value for `COc1ccnc(N2CCC3(CCCC(=O)NC3=O)C2)c1` (centres unmarked) [Example 125, 2-(4-Methoxy-2-pyridyl)-2,7-diazaspiro [4.6]undecane-6,8-dione] was at most 4.00.
`CC(C)(C)OC(=O)N1CCN(c2ccnc(N3CCC4(CCCC(=O)NC4=O)C3)c2)CC1` (centres unmarked) [Example 126, tert-Butyl 4-[2-(6,8-dioxo-2,7-diazaspiro [4.6]undecan-2-yl)-4-pyridyl]piperazine-1-carboxylate] gave a pKd of at most 4.00.
With `O=C1CCCC2(CCN(c3ncc(Br)cn3)C2)C(=O)N1` (centres unmarked) [Example 127, 2-(5-Bromopyrimidin-2-yl)-2,7-diazaspiro [4.6]undecane-6,8-dione] the figure was at most 4.00.
In the case of `CC(C)(C)OC(=O)c1ccc(N2CCC3(CCCC(=O)NC3=O)C2)cc1` (centres unmarked) [Example 128, tert-Butyl 4-(6,8-dioxo-2,7-diazaspiro [4.6]undecan-2-yl) benzoate], the pKd is above 4.30.
With `CC(C)(C)OC(=O)c1ccc(N2CCC3(CC=CC(=O)NC3=O)C2)nc1` (centres unmarked) [Example 131, tert-Butyl 6-(6,8-dioxo-2,7-diazaspiro [4.6]undec-9-en-2-yl) pyridine-3-carboxylate] the figure was at most 4.00; with `CC1(c2cccc(N)c2)CCCC(=O)NC1=O` (centres unmarked) [Example 133, 3-(3-Aminophenyl)-3-methyl-azepane-2,7-dione], at most 4.00; with `CC(=O)Nc1cccc(C2(C)CCCC(=O)NC2=O)c1` (centres unmarked) [Example 134, N-[3-(3-Methyl-2,7-dioxoazepan-3-yl)phenyl]acetamide], 4.00 to 4.30.
The value for `O=C1CCCC(n2nc(I)c3ccccc32)C(=O)N1` (centres unmarked) [Example 135, 3-(3-Iodoindazol-1-yl)azepane-2,7-dione] was above 4.30; that for `CC(C)(C)OC(=O)/C=C/c1nn(C2CCCC(=O)NC2=O)c2ccccc12` (centres unmarked) [Example 136] was 4.00 to 4.30.
The value for `CC(C)(C)OC(=O)Cn1c(=O)n(C2CCCC(=O)NC2=O)c2ccccc21` (centres unmarked) [Example 138, tert-Butyl 2-[3-(2,7-dioxoazepan-3-yl)-2-oxo-benzimidazol-1-yl]acetate] was 4.00 to 4.30; that for `Cn1c(=O)n(C2CCCC(=O)NC2=O)c2ccc(Br)cc21` (centres unmarked) [Example 139, 3-(5-Bromo-3-methyl-2-oxobenzimidazol-1-yl) azepane-2,7-dione] was 4.00 to 4.30; that for `Cn1c(=O)n(C2CCCC(=O)NC2=O)c2ccc(/C=C/C(=O)OC(C)(C)C)cc21` (centres unmarked) [Example 140, tert-Butyl (E)-3-[1-(2,7-oxazepan-3-yl)-3-methyl-2-oxo-benzimidazol-5-yl]-2-propenoate] was at most 4.00.
With `Cn1c(=O)n(C2CCCC(=O)NC2=O)c2ccc(CCC(=O)OC(C)(C)C)cc21` (centres unmarked) [Example 141], the pKd is 4.00 to 4.30.
With `NC(=O)c1nn(-c2ccc(C(=O)NCCOCCOCCNC(=O)c3ccnc(N4CCC5(CCCC(=O)NC5=O)C4)c3)cc2)cc1NC(=O)c1coc(-c2ccnc(NCC3CC3)c2)n1` (centres unmarked) [Example 142, N-[3-Carbamoyl-1-[4-[2-[2-[2-[[2-(6,8-dioxo-2,7-diazaspiro [4.6]undecan-2-yl)pyridine-4-carbonyl]amino]ethoxy]ethoxy]ethylcarbamoyl]phenyl]-pyrazol-4-yl]-2-[2-(cyclopropylmethylamino)-4-pyridyl]oxazole-4-carboxamide] the figure was above 4.30.

Usually pKd stands for the negative decadic logarithm of the Kd, by convention in mol/L. Lower therefore signals a large Kd.
